pKd: −log10 of the molar value.
What was measured:
A53T α-syn Tg mice = assay: α-Synucleinopathy in A53T α-syn Tg mice; type: in vivo, mouse; settings: 0.1 mg/kg body wt/d intranasal, 30 d
Experimental: (§1) FIG. 28 (A-B). Intranasal wtTIDM peptide attenuates microglial inflammation in the nigra of A53T α-syn Tg mice. A53T mice (male; 9-month old; n=6 per group) were treated with TIDM peptides via intranasal route at a dose of 0.1 mg/kg body wt/d for 30 d followed by double-label immunofluorescence analysis of nigral sections for Iba-1 and inducible nitric oxide synthase (iNOS) (A). Magnified images of selected area are shown at the bottom row. The iNOS (+ve) cells were counted in two sections of each of six mice per group and presented as cells/mm2.
as §1, with “29” for “28”, “stimulates” for “attenuates”, “expression of arginase-1” for “inflammation”, “arginase-1 (ARG1)” for “inducible nitric oxide synthase (iNOS)”, “ARG-1” for “iNOS”
FIG. 30 (A-C). Intranasal wtTIDM peptide reduces α-synucleinopathy in the nigra of A53T α-syn Tg mice. A53T mice (male; 9-month old; n=6 per group) were treated with TIDM peptides via intranasal route at a dose of 0.1 mg/kg body wt/d for 30 d followed by Western blot analysis of nigral extracts for α-syn (A). Bands were scanned and presented as relative to A53T control (B, monomeric α-syn; C, oligomeric α-syn). Results are mean+SEM of six mice per group.
(§2) FIG. 31 (A-D). Intranasal wtTIDM peptide reduces α-synucleinopathy in the nigra of A53T α-syn Tg mice. A53T mice (male; 9-month old; n=6 per group) were treated with TIDM peptides via intranasal route at a dose of 0.1 mg/kg body wt/d for 30 d followed by double-label immunofluorescence analysis of nigral sections for TH and α-syn (mjfr1 Ab) (A). Magnified images of selected area are shown at the leftmost column. Total area (B), average size (C) and integrated density (D) of α-syn-positive cell bodies were calculated. Five cells from each of two nigral sections of six mice per group were analyzed.
as §2, with “FIG. 32 (A-B).” for “FIG. 31 (A-D).”, “for microglial marker Iba-1” for “for TH”, “column. Mean fluorescence intensity (MFI)” for “column. Total area (B), average size (C) and integrated density (D)”, “of (α-syn+Iba-1)-positive” for “of α-syn-positive”, “bodies was” for “bodies were”
FIG. 33 (A-E). Intranasal wtTIDM peptide improve locomotor activities of A53T α-syn Tg mice. A53T mice (male; 9-month old; n=6 per group) were treated with TIDM peptides via intranasal route at a dose of 0.1 mg/kg body wt/d for 30 d followed by monitoring locomotor activities by the Ethovision XT 13.0 Open Field Activity System (Noldus) (A, track plot; B, moving cumulative duration; C, distance; D, velocity; E, rotorod). Results are mean+SEM of six mice per group.

[1] = target: T1, C-terminal TIR domain of TLR2 protein (cTLR2) (Mus musculus, UniProt Q9QUN7); assay: Surface plasmon resonance binding of TIDM peptides to cTLR2
T1 construct: The cTLR2 (640-784 amino acids) tagged with c-myc was cloned in lenti vector; made in house; host or cells: HEK293 cells (lentiviral expression)
T1 sequence (Q9QUN7 640-784): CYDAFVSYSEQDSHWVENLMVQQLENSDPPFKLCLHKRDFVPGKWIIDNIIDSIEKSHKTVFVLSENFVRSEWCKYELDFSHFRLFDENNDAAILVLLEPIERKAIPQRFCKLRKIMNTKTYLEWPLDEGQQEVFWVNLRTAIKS
Experimental: TLR2 full-length construct (pLenti-cmyc-DDK/tlr2) was purchased from Origene. The cTLR2 (640-784 amino acids) tagged with c-myc was cloned in lenti vector using TOPO TA cloning kit (K5310-00; Life technologies). Briefly, a kozak sequence was incorporated in the upstream of C-terminal TIR domain of TLR2. Next, cTLR2 was cloned in lentivector followed by packaging in lentivirus using HEK293FT cells. After 48 h, media was collected and concentrated with Lenti-X Concentrator (Cat #631231; Clontech). This concentrated lentiviral sup was used for viral transduction. The cTLR2 protein was isolated from HEK293 cell lysate by passing through Myc affinity column. Purified protein was desalted and concentrated by using 10 kD molecular cut-off filtration system.
To analyze the binding of TLR2 with TIDM peptides, surface plasmon resonance (SPR) experiments were carried out using a Reichert 4SPR instrument (Reichert Technologies, Buffalo, NY). Binding assay was performed using a 500 kDa Carboxymethyl Dextran Gold Sensor Slide (Reichert Inc.) for capturing TLR2. Protein immobilization was at a flow rate of 30 μl/min in PBS for 3 min with 0.8 mg/mL solution of TLR2. For analyte association, different concentrations of wtTIDM and mTIDM peptides in PBS running buffer were injected for 2.5 min at a rate of 30 μl/min followed by a dissociation phase of 3 min. The sensor surface was regenerated after each dissociation cycle by allowing buffer to flow at 40 μl/min for a minimum of 15 min. Signals obtained for the TLR2-bound surface were subtracted by signals obtained for the reference cell according to standard procedure using the system software. The concentration dependence of the subtracted signal was analyzed to determine binding affinity of TLR2 with wtTIDM and mTIDM peptides.

NF-κB = NF-κB activation by EMSA in primary Tlr2−/− microglia; type: cell-based, mouse; settings: peptide 1 h, 1 μM fibrillar Aβ1-42 for 1 h
Experimental: (§3) FIG. 16 (A-F). […] Primary microglia isolated from WT (A) and TLR2 (−/−) (B) mice were treated with different concentrations of wtTIDM peptide for 1 h followed by stimulation with 1 μM fibrillar Aβ1-42 under serum-free condition. After 1 h of stimulation, the activation of NF-κB was monitored by EMSA. WT (C & D) and TLR2 (−/−) (E & F) microglia were treated with different concentrations of wtTIDM and mTIDM peptides for 1 h followed by stimulation with 1 μM fibrillar Aβ1-42 under serum-free condition. After 18 h of stimulation, levels of TNFα (C & E) and IL-1β (D & F) were monitored in supernatants by ELISA (n=2 replicates/condition in 3 independent experiments). ap<0.001 vs control; bp<0.001 vs stimuli by two-sample t-tests.
Nuclear extracts were isolated and EMSA was carried out as described before (22, 23).

TNFα and IL-1β = TNFα and IL-1β ELISA in supernatants of WT primary microglia; type: cell-based, mouse; settings: peptide 1 h, 1 μM fibrillar Aβ1-42 for 18 h
Experimental: as §3

SMILES	protective effect in A53T mice (all readouts) (A53T α-syn Tg mice)	pKd [1]	inhibition of fibrillar Aβ1-42-induced activation of NF-κB in Tlr2−/− microglia (NF-κB)	arginase-1 in the nigra (A53T α-syn Tg mice)	locomotor activities of A53T mice (A53T α-syn Tg mice)	microglial expression of iNOS in the nigra (A53T α-syn Tg mice)	microglial α-syn in the nigra (A53T α-syn Tg mice)	oligomeric and monomeric α-syn (A53T α-syn Tg mice)	α-syn inclusion bodies within tyrosine hydroxylase-positive dopaminergic neurons (A53T α-syn Tg mice)	affinity for cTLR2 stronger than mTIDM ([1]; ratio of Kd values)	inhibition of fibrillar Aβ1-42-induced production of TNFα and IL-1β in WT microglia (TNFα and IL-1β)
CC[C@H](C)[C@H](NC(=O)[C@H](CCCCN)NC(=O)[C@@H](NC(=O)[C@H](CCC(N)=O)NC(=O)[C@H](CCCNC(=N)N)NC(=O)[C@@H](N)CC(=O)O)[C@@H](C)CC)C(=O)N[C@@H](Cc1c[nH]c2ccccc12)C(=O)N[C@@H](Cc1ccccc1)C(=O)N[C@@H](CCC(N)=O)C(=O)N[C@@H](CC(N)=O)C(=O)N[C@@H](CCCNC(=N)N)C(=O)N[C@@H](CCCNC(=N)N)C(=O)N[C@@H](CCSC)C(=O)N[C@@H](CCCCN)C(=O)N[C@@H](Cc1c[nH]c2ccccc12)C(=O)N[C@@H](CCCCN)C(=O)N[C@@H](CCCCN)C(=O)N1CCC[C@H]1C(=O)NCC(=O)N[C@@H](Cc1c[nH]c2ccccc12)C(=O)N[C@@H](Cc1c[nH]cn1)C(=O)N[C@@H](CCC(N)=O)C(=O)N[C@@H](CC(=O)O)C(=O)O [mTIDM, drqikiwfqnrrmkwkkPGWHQD]	did not exhibit any such protective effect	4.72									
CC[C@H](C)[C@H](NC(=O)[C@H](CCCCN)NC(=O)[C@@H](NC(=O)[C@H](CCC(N)=O)NC(=O)[C@H](CCCNC(=N)N)NC(=O)[C@@H](N)CC(=O)O)[C@@H](C)CC)C(=O)N[C@@H](Cc1c[nH]c2ccccc12)C(=O)N[C@@H](Cc1ccccc1)C(=O)N[C@@H](CCC(N)=O)C(=O)N[C@@H](CC(N)=O)C(=O)N[C@@H](CCCNC(=N)N)C(=O)N[C@@H](CCCNC(=N)N)C(=O)N[C@@H](CCSC)C(=O)N[C@@H](CCCCN)C(=O)N[C@@H](Cc1c[nH]c2ccccc12)C(=O)N[C@@H](CCCCN)C(=O)N[C@@H](CCCCN)C(=O)N1CCC[C@H]1C(=O)NCC(=O)N[C@@H](C)C(=O)N[C@@H](Cc1c[nH]cn1)C(=O)N[C@@H](CCC(N)=O)C(=O)N[C@@H](CCCCN)C(=O)O [wtTIDM, drqikiwfqnrrmkwkkPGAHQK]		5.10	remained unable to inhibit	increase	improved	reduced	decrease	reduction	suppression	approximately 2.5 times	inhibited

— US12251422B2, “Compositions and methods for treating neurological and other disorders” (Rush University Medical Center, priority 2018, dated 2025)
